A value given as a limit tells only on which side of the number the result lay.

For data set [1], the target named is T1, 17-beta-hydroxysteroid dehydrogenase type 3 (Homo sapiens, UniProt P37058).
T1 sequence (P37058 whole entry): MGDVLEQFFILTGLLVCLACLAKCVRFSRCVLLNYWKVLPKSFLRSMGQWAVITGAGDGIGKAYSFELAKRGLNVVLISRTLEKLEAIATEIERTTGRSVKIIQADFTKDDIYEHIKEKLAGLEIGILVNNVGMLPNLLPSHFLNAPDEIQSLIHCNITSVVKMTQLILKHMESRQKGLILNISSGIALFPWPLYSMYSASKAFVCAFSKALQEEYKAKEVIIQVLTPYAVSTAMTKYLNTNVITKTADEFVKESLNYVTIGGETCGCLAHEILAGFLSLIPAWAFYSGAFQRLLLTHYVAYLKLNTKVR
Briefly: Inhibition of 17beta-HSD3 by SEAP assay.

Data set [2] addresses T1, 17-beta-hydroxysteroid dehydrogenase type 3. Briefly: Inhibition of 17beta-HSD3.
The test system of the next data set is Liver microsomes. Briefly: Stability in human liver microsome at 10 uM. In kind it is ADME. For orientation: Microsomes from liver hold many membrane-bound enzymes, among them those of drug oxidation.

On to `COc1ccc2c(c1)SCc1ccccc1CN2C(C)=O`, for which the half-maximal inhibitory concentration (IC50) (commonly the concentration needed to halve the response being measured) in data set [1] is greater than 10000 nM; in data set [2], 2060 nM. On the same counts, the results for `CC(=O)N1Cc2ccc(NC(=O)c3ccccc3)cc2CCc2ccccc21` are 260 nM and 160 nM. Taken in the same sequence, the figures for `CC(=O)N1Cc2ccc(C(N)=O)cc2CCc2ccccc21` were 2980 nM and greater than 1000 nM.

For `CC(=O)N1Cc2ccc(NCc3ccccc3)cc2CCc2ccccc21`, the IC50 in data set [1] was found to be 4 nM; in data set [2], 8 nM. On the same counts, the results for `CC(=O)N1Cc2ccccc2CSc2ccc(Cl)cc21` are 170 nM and 30 nM. Taken in the same sequence, the figures for `CC(=O)N1Cc2ccccc2CSc2cc(F)ccc21` were 290 nM and 90 nM. On to `CC(=O)N1Cc2cc(Br)ccc2CCc2ccccc21`, for which the IC50 in data set [1] came to 32 nM; in data set [2] it was 9 nM. On the same counts, the results for `CC(=O)N1Cc2ccccc2CSc2cc(Cl)c(Cl)cc21` are 130 nM and 10 nM. Taken in the same sequence, the figures for `CC(=O)N1Cc2ccccc2CSc2cc(Br)ccc21` were 120 nM and 250 nM.

Turning to `CC(=O)N1Cc2cc(-c3ccc(C#N)cc3)ccc2CCc2cc(Cl)ccc21`, the half-maximal inhibitory concentration (IC50) in data set [1] is 19 nM; in data set [2], 3 nM. Taken in the same sequence, the figures for `CC(=O)N1Cc2ccccc2CSc2ccccc21` were 320 nM and 400 nM. Taken in the same sequence, the figures for `CC(=O)N1Cc2ccccc2CSc2cc(C)ccc21` were 870 nM and 1000 nM. Taken in the same sequence, the figures for `CC(=O)N1Cc2cc(-c3ccccc3CN)ccc2CCc2cc(Cl)ccc21` were 182 nM and 239 nM. In turn, `COC(=O)c1ccccc1-c1ccc2c(c1)CN(C(C)=O)c1ccc(Br)cc1CC2` registered a Stability in the data set with Liver microsomes of 0.4 nmol/mg/min. Moreover, the figures for the 50% inhibitory concentration (IC50) in data set [1] and in data set [2] were 1 nM and 0.7 nM, respectively. `CCN1Cc2ccc(Br)cc2CCc2ccccc21`: the half-inhibitory concentration (IC50) in data set [1] is 2200 nM; in data set [2], greater than 1000 nM. On the same counts, the results for `CC(=O)N1Cc2ccc(Br)cc2CCc2ccccc21` are 36 nM and 7 nM.

Turning to `NC(=O)N1Cc2ccc(Br)cc2CCc2ccccc21`, the IC50 in data set [1] worked out at 930 nM; in data set [2], 280 nM. On to `CNC(=O)c1ccccc1-c1ccc2c(c1)CN(C(C)=O)c1ccc(Cl)cc1CC2`, for which the IC50 in data set [1] and in data set [2] was 25 nM in each case. As to `CC(=O)N1Cc2cc(-c3cccc(C#N)c3)ccc2CCc2cc(Cl)ccc21`, the results for the 50% inhibitory concentration (IC50) in data set [1] and in data set [2] were 15 nM and 3 nM, respectively.

`CC(=O)N1Cc2ccccc2CSc2cccc(Cl)c21`: the 50% inhibitory concentration (IC50) in data set [2] amounted to 11500 nM. Same read-out and setting: next, `CC(=O)N1Cc2ccccc2CSc2ccc(C(F)(F)F)cc21`: 2810 nM.

Turning to `CC(=O)N1Cc2cc(-c3ccccc3)ccc2CCc2cc(Cl)ccc21`, the concentration for half-maximal inhibition (IC50) in data set [1] is 18 nM; in data set [2], 4 nM. For the molecule `O=C(C1CC1)N1Cc2ccc(Br)cc2CCc2ccccc21`, the half-inhibitory concentration (IC50) in data set [1] came out at 1750 nM; in data set [2], 320 nM.

As to `CC(=O)N1Cc2ccccc2CSc2cc(S(C)(=O)=O)ccc21`, the IC50 in data set [2] is greater than 10000 nM. Turning to `CC(=O)N1Cc2ccc(N)cc2CCc2ccccc21`, the IC50 in data set [1] and in data set [2] was 490 nM throughout. Regarding `CC(=O)N1Cc2cc(-c3ccccc3C#N)ccc2CCc2cc(Cl)ccc21`, the values for the half-maximal inhibitory concentration (IC50) in data set [1] and in data set [2] were 62 nM and 5 nM, respectively.

`CC(=O)N1Cc2ccccc2CSc2c1ccc(Cl)c2Cl`: the IC50 in data set [1] was found to be 1300 nM; in data set [2], 760 nM. `COC(=O)c1ccccc1-c1ccc2c(c1)CN(C(C)=O)c1ccc(Cl)cc1CC2` gave a Stability in the data set with Liver microsomes of 0.9 nmol/mg/min. Also, the half-inhibitory concentration (IC50) in data set [1] was determined as 0.5 nM. Regarding `CC(=O)N1Cc2ccccc2CCc2ccc(Cl)cc21`, the IC50 in data set [1] was found to be 130 nM; in data set [2], 50 nM.

In the case of `COc1ccc(-c2ccc3c(c2)CN(C(C)=O)c2ccc(Cl)cc2CC3)cc1`, the IC50 in data set [1] came to 48 nM; in data set [2], 3 nM.

Consider `COc1cccc(-c2ccc3c(c2)CN(C(C)=O)c2ccc(Cl)cc2CC3)c1`, for which the half-inhibitory concentration (IC50) in data set [1] came out at 53 nM; in data set [2] it was 8 nM. Taken in the same sequence, the figures for `COc1ccccc1-c1ccc2c(c1)CN(C(C)=O)c1ccc(Cl)cc1CC2` were 5 nM and 2 nM. In the case of `CC(=O)c1ccccc1-c1ccc2c(c1)CN(C(C)=O)c1ccc(Cl)cc1CC2`, the IC50 in data set [1] was determined as 0.5 nM. `CC(=O)N1Cc2cc(-c3ccccc3CO)ccc2CCc2cc(Cl)ccc21`: the 50% inhibitory concentration (IC50) in data set [1] was 2 nM; in data set [2], 0.9 nM. The molecule `CC(=O)N1Cc2cc(-c3ccccc3)ccc2CCc2ccccc21` returned an IC50 in data set [1] of 4 nM. Turning to `CC(=O)N1Cc2ccccc2CSc2cc(Cl)ccc21`, the IC50 in data set [1] came out at 160 nM; in data set [2], 100 nM. In the case of `CC(=O)N1Cc2ccccc2CCc2ccccc21`, the half-maximal inhibitory concentration (IC50) in data set [1] stood at 220 nM; in data set [2], 90 nM.

With `CC(=O)N1Cc2ccccc2COc2ccccc21`, in data set [2], the concentration for half-maximal inhibition (IC50) came out at 2970 nM. Same read-out and setting: next, `CC(=O)N1Cc2ccccc2CSc2cc(O)ccc21`: 4860 nM. For `CC(=O)N1Cc2ccccc2CNc2ccccc21`, the IC50 in data set [1] was greater than 10000 nM; in data set [2], 4740 nM.

Turning to `CC(=O)N1Cc2cc(-c3ccccc3NS(C)(=O)=O)ccc2CCc2cc(Cl)ccc21`, the concentration for half-maximal inhibition (IC50) was 9 nM in data set [1] and 2 nM in data set [2].

For `CC(=O)N1Cc2cc(-c3cccc(NS(C)(=O)=O)c3)ccc2CCc2cc(Cl)ccc21`, the results for the IC50 in data set [1] and in data set [2] were 190 nM and 140 nM, respectively.

Turning to `CC(=O)N1Cc2ccccc2CCc2cc(Cl)ccc21`, the figures for the 50% inhibitory concentration (IC50) in data set [1] and in data set [2] were 630 nM and 70 nM, respectively.

For `COC(=O)c1cccc(-c2ccc3c(c2)CN(C(C)=O)c2ccc(Cl)cc2CC3)c1`, the half-maximal inhibitory concentration (IC50) in data set [1] was 2 nM; in data set [2], 1.4 nM. Taken in the same sequence, the figures for `CC(=O)N1Cc2cc(-c3cccc(CN)c3)ccc2CCc2cc(Cl)ccc21` were 180 nM and 290 nM.

With `CC(=O)N1Cc2ccccc2/C=C\c2cc(Cl)ccc21`, the 50% inhibitory concentration (IC50) in data set [1] turned out to be 500 nM; in data set [2], 240 nM.

Values taken from ChEMBL document CHEMBL1139664, “Identification of a novel series of tetrahydrodibenzazocines as inhibitors of 17beta-hydroxysteroid dehydrogenase type 3” (Bioorg Med Chem Lett, 2006).
